In US12187713B2, “Immunomodulators, compositions and methods thereof” (Betta Pharmaceuticals Co., Ltd, priority 2019, dated 2025) one finds IC50 data, which are given here for 22 compounds.

PD-1/PD-L1, sequence (Q9NZQ7 19-238): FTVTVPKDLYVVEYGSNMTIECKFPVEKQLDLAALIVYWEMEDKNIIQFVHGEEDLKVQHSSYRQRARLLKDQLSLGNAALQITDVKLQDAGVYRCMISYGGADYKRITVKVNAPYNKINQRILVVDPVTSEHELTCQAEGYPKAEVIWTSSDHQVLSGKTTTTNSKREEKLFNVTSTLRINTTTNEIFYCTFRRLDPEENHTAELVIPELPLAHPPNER

The target of the first experiment is PD-1/PD-L1 (Homo sapiens (Human), UniProt Q9NZQ7). Put plainly: PD-1/PD-L1 Binding Assay (Alphascreen). Particulars: numeric values. A digest of the protocol:
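PD-1/PD-L1 binding detected by anti-6×His acceptor and streptavidin donor beads after 120 min in the dark at 25 °C. Beforehand, the two proteins were incubated 15 min at 25 °C with inhibitor at 0.015–300 nM (1% DMSO). IC50 comes from a log concentration–response curve.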
On the technique in general: Alpha assays give light when donor and acceptor beads are brought close together.
Compound `Cc1c(-c2nc3cc(CN4CCC[C@H]4C(=O)O)c(OC(F)F)cc3o2)cccc1-c1cccc(-c2ccc(CNC[C@@H]3CCC(=O)N3)cc2)c1F` [Example 215, ((6-(difluoromethoxy)-2-(2′-fluoro-2-methyl-4″- (((((S)-5-oxopyrrolidin-2-yl)methyl)amino)methyl)-[1,1′:3′,1″- terphenyl]-3-yl)benzo[d]oxazol-5-yl)methyl)-L-proline] yielded a concentration for half-maximal inhibition (IC50) of 2.8 nM. This lies in the single-digit nanomolar range.

In turn, `Cc1c(-c2nc3cc(CN4CCC[C@H]4C(=O)O)c(OC(F)F)cc3o2)cccc1-c1cccc(N2CCC(N3CCCC3)CC2)c1C` [Example 306, ((6-(difluoromethoxy)-2-(2,2′-dimethyl-3′-(4-(pyrrolidin-1-yl)piperidin-1-yl)-[1,1′-biphenyl]-3-yl)benzo[d]oxazol-5-yl)methyl)-L-proline] came in with an IC50 of 1.5 nM.

Compound `Cc1c(-c2nc3cc(CN4CCCC4)c(F)cc3[nH]2)cccc1-c1cccc(-c2nc3cc(CN4CCC[C@H]4C(=O)O)c(OC(F)F)cc3o2)c1C` [Example 297] came in with an IC50 of 26 nM.

With `Cc1c(-c2nc3cc(CN4CC5CC4C5)c(OC(F)F)cc3o2)cccc1-c1cccc(-c2nc3cc(CN4CCC[C@H]4C(=O)O)c(OC(F)F)cc3o2)c1C` [Example 71, ((2-(3′-(5-((2-azabicyclo[2.1.1]hexan-2-yl)methyl)-6-(difluoromethoxy)benzo[d]oxazol-2-yl)-2,2′-dimethyl-[1,1′-biphenyl]-3-yl)-6-(difluoromethoxy)benzo[d]oxazol-5-yl)methyl)-L-proline], the half-maximal inhibitory concentration (IC50) is 0.37 nM.

Compound `Cc1c(-c2cnc(CN3CCCC3)c(F)c2)cccc1-c1cccc(-c2nc3cc(CN4CCC[C@H]4C(=O)O)c(OC(F)F)cc3o2)c1C` [Example 265, ((6-(difluoromethoxy)-2-(3′-(5-fluoro-6-(pyrrolidin-1-ylmethyl)pyridin-3-yl)-2,2′-dimethyl-[1,1′-biphenyl]-3-yl)benzo[d]oxazol-5-yl)methyl)-L-proline] came in with an IC50 of 0.73 nM.

The same experiment, now with this note: range symbols.
The compound `C=Cc1cc(-c2cccc(-c3cccc(-c4nc5cc(CN6CCC[C@H]6C(=O)O)c(OC(F)F)cc5o4)c3C)c2C)ncc1CN1CCCC1` [Example 274, ((6-(difluoromethoxy)-2-(2,2′-dimethyl-3′-(5-(pyrrolidin-1-ylmethyl)-4-vinylpyridin-2-yl)-[1,1′-biphenyl]-3-yl)benzo[d]oxazol-5-yl)methyl)-L-proline] registered a 50% inhibitory concentration (IC50) of 0.1 to 5 nM. `Cc1c(-c2nc3cc(CN4CC[C@H](C(=O)O)C4)c(OC(F)F)cc3o2)cccc1-c1cccc(-c2nc3cc(CN4CC[C@H](C)C4)cc(C#N)c3o2)c1C` [Example 259, (S)-1-((2-(3′-(7-cyano-5-(((S)-3-methylpyrrolidin-1-yl)methyl)benzo[d]oxazol-2-yl)-2,2′-dimethyl-[1,1′-biphenyl]-3-yl)-6-(difluoromethoxy)benzo[d]oxazol-5-yl)methyl)pyrrolidine-3-carboxylic acid]: the 50% inhibitory concentration (IC50) is 0.1 to 5 nM. The compound `Cc1c(-c2nc3cc(CN4CCC4CO)ccc3o2)cccc1-c1cccc(-c2nc3cc(CN4CCC[C@H]4C(=O)O)c(OC(F)F)cc3o2)c1C` (stereo partly drawn) [Example 105, ((6-(difluoromethoxy)-2-(3′-(5-((2-(hydroxymethyl)azetidin-1-yl)methyl)benzo[d]oxazol-2-yl)-2,2′-dimethyl-[1,1′-biphenyl]-3-yl)benzo[d]oxazol-5-yl)methyl)-L-proline] had an IC50 of 0.1 to 5 nM. For the compound `Cc1c(-c2nc3cc(CN4CCC4C)c(OC(F)F)cc3o2)cccc1-c1cccc(-c2nc3cc(CN4CCC[C@H]4C(=O)O)c(OC(F)F)cc3o2)c1C` (stereo partly drawn) [Example 60, ((6-(difluoromethoxy)-2-(3′-(6-(difluoromethoxy)-5-((2-methylazetidin-1-yl)methyl)benzo[d]oxazol-2-yl)-2,2′-dimethyl-[1,1′-biphenyl]-3-yl)benzo[d]oxazol-5-yl)methyl)-L-proline], the IC50 was in the range of 0.1 to 5 nM. As to `CNCc1cc2nc(-c3cccc(-c4cccc(-c5nc6cc(CN7CCC[C@H]7C(=O)O)c(OC(F)F)cc6o5)c4C)c3C)oc2cc1OCc1cccc(S(C)(=O)=O)c1` [Example 124, ((6-(difluoromethoxy)-2-(2,2′-dimethyl-3′-(5-((methylamino)methyl)-6-((3-(methylsulfonyl)benzyl)oxy)benzo[d]oxazol-2-yl)-[1,1′-biphenyl]-3-yl)benzo[d]oxazol-5-yl)methyl)-L-proline], the 50% inhibitory concentration (IC50) fell in the range of 0.1 to 5 nM. In turn, `Cc1c(-c2nc3cc(CN4CCC[C@H]4C(=O)O)c(OC(F)F)cc3o2)cccc1-c1cccc(-c2nc3cc(CNCC(C)(C)O)cc(C#N)c3o2)c1C` [Example 138, ((2-(3′-(7-cyano-5-(((2-hydroxy-2-methylpropyl)amino)methyl)benzo[d]oxazol-2-yl)-2,2′-dimethyl-[1,1′-biphenyl]-3-yl)-6-(difluoromethoxy)benzo[d]oxazol-5-yl)methyl)-L-proline] registered an IC50 of 0.1 to 5 nM. On the same count and under the same terms, the same measure for `Cc1c(-c2ccc3c(c2)CN(CC(=O)O)C3)cccc1-c1cccc(-c2nc3cc(CN4CCC[C@H]4C(=O)O)c(OC(F)F)cc3o2)c1C` [Example 291, ((2-(3′-(2-(carboxymethyl)isoindolin-5-yl)-2,2′-dimethyl-[1,1′-biphenyl]-3-yl)-6-(difluoromethoxy)benzo[d]oxazol-5-yl)methyl)-L-proline]: 0.1 to 5 nM; for `Cc1c(-c2nc3cc(CN4CCC[C@H]4C(=O)O)c(OC(F)F)cc3o2)cccc1-c1cccc(-c2nc3cc(CN4CCCC4)cnc3o2)c1C` [Example 112, ((6-(difluoromethoxy)-2-(2,2′-dimethyl-3′-(6-(pyrrolidin-1-ylmethyl)oxazolo[5,4-b]pyridin-2-yl)-[1,1′-biphenyl]-3-yl)benzo[d]oxazol-5-yl)methyl)-L-proline]: 0.1 to 5 nM; for `Cc1c(-c2nc3cc(CN4CC(=O)C4)c(OC(F)F)cc3o2)cccc1-c1cccc(-c2nc3cc(CN4CCC[C@H]4C(=O)O)c(OC(F)F)cc3o2)c1C` [Example 46, ((6-(difluoromethoxy)-2-(3′-(6-(difluoromethoxy)-5-((3-oxoazetidin-1-yl)methyl)benzo[d]oxazol-2-yl)-2,2′-dimethyl-[1,1′-biphenyl]-3-yl)benzo[d]oxazol-5-yl)methyl)-L-proline]: 5 to 50 nM. Consider `COc1nc(-c2cccc(-c3cccc(-c4nc5cc(CN6CCC[C@H]6C(=O)O)c(OC(F)F)cc5o4)c3C)c2C)ccc1CN1CCC[C@H]1C` [Example 279, ((6-(difluoromethoxy)-2-(3′-(6-methoxy-5-(((R)-2-methylpyrrolidin-1-yl)methyl)pyridin-2-yl)-2,2′-dimethyl-[1,1′-biphenyl]-3-yl)benzo[d]oxazol-5-yl)methyl)-L-proline], for which the half-maximal inhibitory concentration (IC50) fell in the range of 0.1 to 5 nM.

`Cc1c(Nc2nccc3cc(CNCC4CCC(=O)N4)cnc23)cccc1-c1cccc(-c2nc3cc(CN4CCC[C@H]4C(=O)O)c(OC(F)F)cc3o2)c1C` (stereo partly shown) [Example 179, ((6-(difluoromethoxy)-2-(2,2′-dimethyl-3′-((3-((((5-oxopyrrolidin-2-yl)methyl)amino)methyl)-1,7-naphthyridin-8-yl)amino)-[1,1′-biphenyl]-3-yl)benzo[d]oxazol-5-yl)methyl)proline] returned an IC50 of 0.1 to 5 nM. On to `Cc1c(-c2nc3cc(CN4CCC[C@H]4C(=O)O)c(OC(F)F)cc3o2)cccc1-c1cccc(-c2nc3cc(CN4CC[C@@H](CF)C4)cc(C#N)c3o2)c1C` [Example 168, ((2-(3′-(7-cyano-5-(((R)-3-(fluoromethyl)pyrrolidin-1-yl)methyl)benzo[d]oxazol-2-yl)-2,2′-dimethyl-[1,1′-biphenyl]-3-yl)-6-(difluoromethoxy)benzo[d]oxazol-5-yl)methyl)-L-proline], for which the half-maximal inhibitory concentration (IC50) lay within 0.1 to 5 nM. `Cc1c(-c2nc3cc(CN4CCC[C@@H]4C(=O)O)c(OC(F)F)cc3o2)cccc1-c1cccc(-c2nc3cc(CN4CC(C)(C)C4)cc(C#N)c3o2)c1C` [Example 140, ((2-(3′-(7-cyano-5-((3,3-dimethylazetidin-1-yl)methyl)benzo[d]oxazol-2-yl)-2,2′-dimethyl-[1,1′-biphenyl]-3-yl)-6-(difluoromethoxy)benzo[d]oxazol-5-yl)methyl)-D-proline] came in with an IC50 of 0.1 to 5 nM. As to `Cc1c(-c2nc3cc(CN4CCC[C@@H]4C(=O)O)c(OC(F)F)cc3o2)cccc1-c1cccc(-c2nc3cc(CN4CCC(C#N)C4)cc(C#N)c3o2)c1C` (stereo partly drawn) [Example 143, ((2-(3′-(7-cyano-5-((3-cyanopyrrolidin-1-yl)methyl)benzo[d]oxazol-2-yl)-2,2′-dimethyl-[1,1′-biphenyl]-3-yl)-6-(difluoromethoxy)benzo[d]oxazol-5-yl)methyl)-D-proline], the IC50 is 0.1 to 5 nM. On the same count and under the same terms, the same measure for `Cc1c(-c2nc3cc(CN4CCC[C@@H]4C(=O)O)c(OC(F)F)cc3o2)cccc1-c1cccc(-c2nc3cc(CN4CCC(F)C4)cc(C#N)c3o2)c1C` (stereo partly drawn) [Example 163, ((2-(3′-(7-cyano-5-((3-fluoropyrrolidin-1-yl)methyl)benzo[d]oxazol-2-yl)-2,2′-dimethyl-[1,1′-biphenyl]-3-yl)-6-(difluoromethoxy)benzo[d]oxazol-5-yl)methyl)-D-proline]: 5 to 50 nM; for `Cc1c(-c2nc3cc(CN4CCC[C@H]4C(=O)O)c(OC(F)F)cc3o2)cccc1-c1cccc(-c2nc3cc(CN4CCC(C)(F)C4)cc(C#N)c3o2)c1C` (stereo partly drawn) [Example 167, ((2-(3′-(7-cyano-5-((3-fluoro-3-methylpyrrolidin-1-yl)methyl)benzo[d]oxazol-2-yl)-2,2′-dimethyl-[1,1′-biphenyl]-3-yl)-6-(difluoromethoxy)benzo[d]oxazol-5-yl)methyl)-L-proline]: 5 to 50 nM. Turning to `Cc1c(-c2nc3cc(CN4CCC4C)ccc3o2)cccc1-c1cccc(-c2nc3cc(CN4CCC[C@H]4C(=O)O)c(OC(F)F)cc3o2)c1C` (stereo partly drawn) [Example 313, ((6-(difluoromethoxy)-2-(2,2′-dimethyl-3′-(5-((2-methylazetidin-1-yl)methyl)benzo[d]oxazol-2-yl)-[1,1′-biphenyl]-3-yl)benzo[d]oxazol-5-yl)methyl)-L-proline], the half-maximal inhibitory concentration (IC50) was 0.1 to 5 nM.

The IC50 is the midpoint of a concentration-inhibition curve. Higher therefore signals weaker potency.
